Experimental data from patent US20260224756A1, “Methods Of Cellular Imaging And Inorganic Nanoimaging Agents For Same” (Cornell University, priority 2023, published 2026).
Entries after “also recorded” stand apart in the source; their conditions may differ.

How the values were obtained:
Format in all cases: in vivo, mouse
[1] = test system: osteocytes; assay: Endocytosis Inhibition Experiment: Dyngo4a or MβCD pre-incubation before C'Dot injection and clearance imaging; conditions: for changes in uptake and retention of C'Dots into osteocytes (FIG. 17): RGD and PEG C'Dots; for number of cells visualized and quantified at the initial imaging timepoint compared to untreated control: RGD-C'Dots, 30 minute preincubation of drug
Procedure: C'Dot Injection and Incubation: Mice were anesthetized with 2-3% isoflurane mixed with medical grade air in an induction chamber for 3 minutes prior to injection. During injection, mice were kept under 2% isoflurane with a nose cone. A 10 μL subcutaneous injection of 10 μM C'Dots was then administered over the third metatarsal (MT3). C'Dots were incubated for 1 hour prior to MT3 isolation (n=4-5/group/sex). Mice were allowed normal cage activity during their incubation time, and were re-anesthetized immediately before MT3 isolation.
C'Dot Imaging: C'Dot fluorescent signal inside the MT3 was visualized with multiphoton microscopy (MPM) (Bergamo II, Thorlabs) as previously described (Matthews 2023). Briefly, a 20× immersion objective (XLUMPLFLN, Olympus), 1090 nm wavelength excitation, and a >647 nm longpass filter acquisition were used for Cy5 encapsulated C'Dots. Images were captured at 1024×1024 pixel density and 0.588 μm pixel resolution. For the C'Dot clearance study, a 35 μm z-stack was taken for each mouse, starting 20 μm beneath the bone surface, with 0.3 μm steps between each slice and 7 frame averaging per slice. These z-stacks were taken every 15 minutes for almost 3 hours after the initial 1 hour incubation.
C'Dot Image Analysis: Z-stacks were analyzed in ImageJ (NIH) as previously described (Matthews 2023). Briefly, a macro was created to interpolate the regions of interest across the z-stack as well as filter the images. Then 3D segmentation was run, creating objects for all cell volumes over a threshold intensity. The lower bound for threshold intensity was established as the mean plus 3× standard deviation of background fluorescence. Segmented objects were then filtered by surface area (>1000 pixels) to ensure only full cell volumes were counted, and mean intensity for each object was quantified using the 3D manager tool. Intensities were normalized to background within each z-stack.
Endocytosis Inhibition Experiment: The small molecule Dyngo4a was used as a potent Dynasore analogue to evaluate the impact of dynamin-mediated endocytosis inhibition. A pre-incubation of Dyngo4a (10 μL, 30 μM) was subcutaneously injected above the MT3 30 minutes prior to C'Dot injection and subsequent imaging. Dyngo4a was diluted from a stock solution in DMSO to the working concentration in 1×PBS. Dyngo4a was kept at […] and was defrosted prior to use. Methyl-β-cyclodextrin (MβCD) was used as a depletor of plasma membrane cholesterol to evaluate the impact of cholesterol-mediated, lipid raft-based endocytosis inhibition. A pre-incubation of MβCD (10 μL, 10 mM) was subcutaneously injected 30 minutes before C'Dot injection. MβCD was diluted from a powder in 1×PBS. MβCD was kept at 4 C and warmed to room temperature prior to use. Both drugs were tested across all groups: male and female, PEG- and RGD-C'Dots (n=4-5/group/sex).
Statistical Analyses: Clearance study analysis was done using a student's t-test, 2-way ANOVAs, and regression analyses, including non-linear (One Phase Decay) and linear. Analyses were performed in GraphPad Prism version 9.0 for Mac OS X (GraphPad Software).
METHODS: Silica core poly(ethylene glycol) shell (core-shell) nanoparticles covalently encapsulating Cy5 dye (PE G-C'Dots) were created using a modified Stober condensation in water. RGD-C'Dots were created by surface functionalizing C'Dot surface with amino acid motifs that bind to the extracellular RGD domain of integrin proteins. Skeletally mature C57BL/6J mice age 16-18 weeks were used for these studies (n=4-5/group/sex). C'Dot Injections: Under inhaled isoflurane anesthesia, PEG- or RGD-C'Dots were injected subcutaneously above the third metatarsal (MT3) in the mouse hind paw at a concentration of 10 μM (FIG. 9). C'Dots were incubated for 45 minutes with mice allowed normal cage activity. […]

[2] = test system: osteocytes; assay: Quantification of C'Dot Subcellular Localization within osteocyte cell bodies
Procedure: Quantification of C'Dot Subcellular Localization: Individual frames from z-stacks taken after a 45 minute C'Dot incubation were analyzed for subcellular localization within osteocytes under different study conditions. Filtering with a gaussian blur was performed prior to thresholding of signal and particle analysis to identify cellular regions of interest (ROIs). These ROIs were overlayed onto the original image. Cells with distinct subcellular localization of C'Dots were counted as a percentage of total cells. Other cells had saturated or non-distinct signal. Cells with C'Dot signal in with a rim phenotype were also quantified by-eye. Two blinded individuals quantified the images and averaged consensus data was used in the final results.
METHODS: Silica core poly(ethylene glycol) shell (core-shell) nanoparticles covalently encapsulating Cy5 dye (PE G-C'Dots) were created using a modified Stober condensation in water. RGD-C'Dots were created by surface functionalizing C'Dot surface with amino acid motifs that bind to the extracellular RGD domain of integrin proteins. Skeletally mature C57BL/6J mice age 16-18 weeks were used for these studies (n=4-5/group/sex). C'Dot Injections: Under inhaled isoflurane anesthesia, PEG- or RGD-C'Dots were injected subcutaneously above the third metatarsal (MT3) in the mouse hind paw at a concentration of 10 μM (FIG. 9). C'Dots were incubated for 45 minutes with mice allowed normal cage activity. Pre-incubation with Dyngo-4a (Abcam) or Methyl-β-cyclodextrin (Sigma Aldrich) for 30 minutes prior to C'Dot injection was used to inhibit dynamin activity or cholesterol lipid raft formation in treated groups. Imaging: After incubation, the MT3 was surgically isolated and stabilized using a metal 3-pin system in re-anesthetized mice'. […] Image Quantification: Mean intensity and cell count of the C'Dot tagged osteocytes were quantified in ImageJ (NIH) using 3D segmentation and were normalized to background intensity. Subcellular localization of C'Dots was quantified by eye from a single frame of the first z-stack of each clearance experiment. […]

[3] = test system: osteocytes; assay: Combined acute and extended C'Dot clearance from osteocytes in non-drugged and drugged groups; conditions: for impact on combined acute and extended C'Dot clearance (FIG. 18): male mice; for impact on combined acute and extended C'Dot clearance (FIG. 19): male mice (so in the source)
Procedure: Osteocyte C'Dot Endocytosis and Metabolism: C'Dots and their rapid uptake and clearance from osteocytes was used to study endocytosis in living bone tissue. In endocytosis experiments, different drugs are preincubated in the foot (injected in the same manner) prior to C'Dot application and incubation. Drugs to target different types of endocytic pathways, including non-receptor mediated endocytosis and clathrin mediated endocytosis, were used. The same clearance imaging was performed to see how the drugs impact the cellular uptake and retention of the nanoparticles over time.
Additionally, this experiment was performed again with a short, 5 minute incubation and more rapid imaging to see what the acute impacts of the drugs were on C'Dot uptake.

Molecule	changes in uptake and retention of C'Dots into osteocytes (FIG. 17) [1]	RGD C'Dot signal compared to untreated control ([1]; female group, MβCD pre-incubation)	PEG C'Dot signal compared to untreated control ([1]; male and female PEG C'Dot groups, MβCD pre-incubation)	RGD C'Dot signal compared to untreated control ([1]; male group, MβCD pre-incubation)	RGD C'Dot signal compared to untreated control ([1]; male group, MβCD pre-incubation, listed as M (3CD))	change in percentage of cells with subcellular localization after drug pre-incubation ([2]; any group)	impact on combined acute and extended C'Dot clearance (FIG. 18) [3]	impact on combined acute and extended C'Dot clearance (FIG. 19) [3]	change of PEG-C'Dot clearance from untreated control ([1]; PEG-C'Dots, males and females, Dyngo4a preincubation)	RGD-C'Dot signal at the end of the imaging experiment ([1]; female mice, Dyngo4a preincubation)	number of cells visualized and quantified at the initial imaging timepoint compared to untreated control ([1]; female mice)	RGD C'Dot signal intensity and retention compared to untreated control ([1]; male mice, Dyngo4a pre-incubation)	RGD-C'Dot signal at the end of the imaging experiment ([1]; male mice, Dyngo4a preincubation)	number of cells visualized and quantified at the initial imaging timepoint compared to untreated control ([1]; male mice)	change in cells with discrete localization of RGD C'Dot signal after drug pre-incubation ([2]; females, pre-incubation with drug)	cells with discrete localization of RGD C'Dot signal after drug pre-incubation ([2]; males, pre-incubation with drug) [%]
Methyl-β-cyclodextrin [MβCD]	significant changes in uptake and retention	significant increase	only males retained a significant increase in signal	significant increase	no effect	did not significantly change	has an impact on both C'Dot types	has an impact on both C'Dot types	–	–	–	–	–	–	–	–
O=C(N/N=C/c1cc(O)c(O)cc1O)c1cc2ccccc2cc1O [Dyngo4a]	significant changes in uptake and retention	–	–	–	–	–	has an impact only on the RGD C'Dots	does not have an impact on either C'Dot type	neither males or females having significant change	near zero by the end of the experiment	no statistically significant impact	significantly increased	maintained until the end of the imaging experiment	significantly higher	non-significant decrease; also recorded: no statistically significant impact	25
